Patent publication EP0531958A1, “6-Aminoquinolones, their synthesis and their use as antibacterial agents” (MEDIOLANUM FARMACEUTICI S.P.A., priority 1991, dated 1993)
≈ marks a conversion by molar mass, not a printed value. Read-outs that look alike come from different tables or passages of the source.

Tests used:
Assay type in all cases: cell-based
Gram + = assay: MIC test, average over the 5 gram-positive test germs; settings: 24 h
Method: (§1) As to the antibacterial activity, there was determined the Least (Minimum) Inhibiting Concentration (MIC), by working according to the following operative conditions.
(§2) There were used suspensions of test germs (5 gram-positive and 15 gram-negative) having a known titre, kept freezed at -80°C and diluted, at the time of use, in peptonized water up to a concentration of 1-2.10⁷ cfu/ml.
(§3) A few mg of the products, according to the invention were weighed sufficient for preparing parent solutions in DMSO + NaOH (1N) containing 2560 µg/ml (64µg/ml/dish). From the thus prepared parent solutions there were prepared 12 serial dilutions (1:2) down to the concentration of 1.25 µg/ml.
(§4) 0.5 ml of the different dilutions of each product were distributed on dishes containing 19.5 ml of agarized medium (TSA), maintained in a fluid state at the temperature of 50°C. After slight stirring, the dishes were made to solidify and dry under hood (laminar flow).
(§5) The MIC tests (Least or "Minimum" Inhibiting Concentration) were performed by using a Steers multiwell inoculator having 36 wells, each containing 200 µl of bacterial suspension.
(§6) After inoculation, the dishes were placed into a thermostat and checked after 24 h of incubation at 35°C.
(§7) The MIC is defined as the lowermost product concentration (µg/ml) inhibiting the visible growth of the microorganisms.

[1] = system: Acinebacter calcoloaceticus OSMPV 1130; assay: MIC test, agar dilution with Steers multiwell inoculator; settings: TSA dishes, 24 h at 35°C, read-out: Minimum Inhibiting Concentration
Method: as §1, §2, §3, §4, §5, §6, §7

[2] = system: Enterobacter cloacae OMNF 1153; assay: as above; settings: OMNF1153, TSA dishes, 24 h at 35°C, read-out: Minimum Inhibiting Concentration
Method: as §1, §2, §3, §4, §5, §6, §7

[3] = system: Enterobacter cloacae OMNF 1174; assay: as above; settings: OMNF1174, TSA dishes, 24 h at 35°C, read-out: Minimum Inhibiting Concentration
Method: as §1, §2, §3, §4, §5, §6, §7

Escherichia coli 120 = assay: as above; settings: TSA dishes, 24 h at 35°C, read-out: Minimum Inhibiting Concentration
Method: as §1, §2, §3, §4, §5, §6, §7

[4] = system: Escherichia coli ATCC 8739; assay: as above; settings: ATCC8739, TSA dishes, 24 h at 35°C, read-out: Minimum Inhibiting Concentration
Method: as §1, §2, §3, §4, §5, §6, §7

Escherichia coli CNUR 1 = assay: as above; settings: CNUR1, TSA dishes, 24 h at 35°C, read-out: Minimum Inhibiting Concentration
Method: as §1, §2, §3, §4, §5, §6, §7

Escherichia coli CNUR 8 = assay: as above; settings: CNUR8, TSA dishes, 24 h at 35°C, read-out: Minimum Inhibiting Concentration
Method: as §1, §2, §3, §4, §5, §6, §7

Escherichia coli ISF 432 = assay: as above; settings: ISF432, TSA dishes, 24 h at 35°C, read-out: Minimum Inhibiting Concentration
Method: as §1, §2, §3, §4, §5, §6, §7

[5] = system: Klebsiella pneumoniae ATCC 10031; assay: as above; settings: ATCC10031, TSA dishes, 24 h at 35°C, read-out: Minimum Inhibiting Concentration
Method: as §1, §2, §3, §4, §5, §6, §7

Proteus vulgaris CNUR 6 = assay: as above; settings: CNUR6, TSA dishes, 24 h at 35°C, read-out: Minimum Inhibiting Concentration
Method: as §1, §2, §3, §4, §5, §6, §7

[6] = system: Providencia stuardii CNUR 5; assay: as above; settings: CNUR5, TSA dishes, 24 h at 35°C, read-out: Minimum Inhibiting Concentration
Method: as §1, §2, §3, §4, §5, §6, §7

[7] = system: Pseudomonas aeruginosa ATCC 9027; assay: as above; settings: ATCC9027, TSA dishes, 24 h at 35°C, read-out: Minimum Inhibiting Concentration
Method: as §1, §2, §3, §4, §5, §6, §7

[8] = system: Pseudomonas aeruginosa CNUR 2; assay: as above; settings: CNUR2, TSA dishes, 24 h at 35°C, read-out: Minimum Inhibiting Concentration
Method: as §1, §2, §3, §4, §5, §6, §7

[9] = system: Pseudomonas aeruginosa CNUR 4; assay: as above; settings: CNUR4, TSA dishes, 24 h at 35°C, read-out: Minimum Inhibiting Concentration
Method: as §1, §2, §3, §4, §5, §6, §7

Shighella enteritidis = assay: as above; settings: TSA dishes, 24 h at 35°C, read-out: Minimum Inhibiting Concentration
Method: as §1, §2, §3, §4, §5, §6, §7

[10] = system: Staphylococcus aureus ATCC 6538; assay: as above; settings: ATCC6538, TSA dishes, 24 h at 35°C, read-out: Minimum Inhibiting Concentration
Method: as §1, §2, §3, §4, §5, §6, §7

[11] = system: Staphylococcus aureus MPR 5; assay: as above; settings: MPR5, TSA dishes, 24 h at 35°C, read-out: Minimum Inhibiting Concentration
Method: as §1, §2, §3, §4, §5, §6, §7

[12] = system: Staphylococcus epidermidis CPHL A2; assay: as above; settings: CPHLA2, TSA dishes, 24 h at 35°C, read-out: Minimum Inhibiting Concentration
Method: as §1, §2, §3, §4, §5, §6, §7

[13] = system: Staphylococcus epidermidis HCF Berset C.; assay: as above; settings: TSA dishes, 24 h at 35°C, read-out: Minimum Inhibiting Concentration
Method: as §1, §2, §3, §4, §5, §6, §7

[14] = system: Streptococcus facealis LEP Br.; assay: as above; settings: TSA dishes, 24 h at 35°C, read-out: Minimum Inhibiting Concentration
Method: as §1, §2, §3, §4, §5, §6, §7

Gram - = assay: MIC test, average over the 15 gram-negative test germs; settings: 24 h
Method: as §1, §2, §3, §4, §5, §6, §7

[15] = geometrical average of the MIC over the 5 Gram + strains, read-out: Geometrical Average
[16] = geometrical average of the MIC over the 15 Gram - strains, read-out: Geometrical Average
[17] = mean log of the MIC over the 15 Gram - strains, read-out: Log (converted)

SMILES	MIC (Gram +; [15]) [µg/mL]	MIC (Gram +; read-out: Log (converted)) [µg/mL]	MIC [1] [µg/mL]	MIC [2] [µg/mL]	MIC [3] [µg/mL]	MIC (Escherichia coli 120) [µg/mL]	MIC [4] [µg/mL]	MIC (Escherichia coli CNUR 1) [µg/mL]	MIC (Escherichia coli CNUR 8) [µg/mL]	MIC (Escherichia coli ISF 432) [µg/mL]	MIC [5] [µg/mL]	MIC (Proteus vulgaris CNUR 6) [µg/mL]	MIC [6] [µg/mL]	MIC [7] [µg/mL]	MIC [8] [µg/mL]	MIC [9] [µg/mL]	MIC (Shighella enteritidis) [µg/mL]	MIC [10] [µg/mL]	MIC [11] [µg/mL]	MIC [12] [µg/mL]	further results
CC1CN(c2cc3c(cc2N)c(=O)c(C(=O)O)cn3C2CC2)CC(C)N1 (stereo not drawn) [Compound 11]	6.96	6.97 (≈ 19.5 µM)	8 (≈ 22.4 µM)	0.5 (≈ 1.4 µM)	0.5 (≈ 1.4 µM)	0.12 (≈ 0.337 µM)	0.03 (≈ 0.0842 µM)	0.25 (≈ 0.701 µM)	0.25 (≈ 0.701 µM)	0.03 (≈ 0.0842 µM)	0.03 (≈ 0.0842 µM)	64 (≈ 180 µM)	2 (≈ 5.61 µM)	2 (≈ 5.61 µM)	8 (≈ 22.4 µM)	64 (≈ 180 µM)	0.25 (≈ 0.701 µM)	8 (≈ 22.4 µM)	8 (≈ 22.4 µM)	2 (≈ 5.61 µM)	MIC [13]: 4 µg/mL (≈ 11.2 µM); MIC [14]: 32 µg/mL (≈ 89.8 µM); MIC (Gram -; [16]): 0.75 µg/mL (≈ 2.1 µM); MIC (Gram -; [17]): 0.75 µg/mL (≈ 2.1 µM)
Nc1cc2c(=O)c(C(=O)O)cn(C3CC3)c2c(F)c1N1CCSCC1 [Compound 23]	0.758	0.759 (≈ 2.09 µM)	1 (≈ 2.75 µM)	1 (≈ 2.75 µM)	1 (≈ 2.75 µM)	0.25 (≈ 0.688 µM)	0.12 (≈ 0.33 µM)	0.5 (≈ 1.38 µM)	0.25 (≈ 0.688 µM)	0.06 (≈ 0.165 µM)	0.03 (≈ 0.0826 µM)	64 (≈ 176 µM)	0.5 (≈ 1.38 µM)	4 (≈ 11 µM)	8 (≈ 22 µM)	64 (≈ 176 µM)	4 (≈ 11 µM)	0.5 (≈ 1.38 µM)	0.25 (≈ 0.688 µM)	0.5 (≈ 1.38 µM)	MIC [13]: 1 µg/mL (≈ 2.75 µM); MIC [14]: 4 µg/mL (≈ 11 µM); MIC (Gram -; [16]): 1.04 µg/mL (≈ 2.85 µM); MIC (Gram -; [17]): 1.04 µg/mL (≈ 2.85 µM)
CN1CCN(c2cc3c(cc2N)c(=O)c(C(=O)O)cn3-c2ccc(F)cc2)CC1 [Compound 50]	10.6	10.5 (≈ 26.6 µM)	16 (≈ 40.4 µM)	4 (≈ 10.1 µM)	4 (≈ 10.1 µM)	0.5 (≈ 1.26 µM)	0.25 (≈ 0.631 µM)	4 (≈ 10.1 µM)	0.5 (≈ 1.26 µM)	0.25 (≈ 0.631 µM)	0.12 (≈ 0.303 µM)	128 (≈ 323 µM)	4 (≈ 10.1 µM)	8 (≈ 20.2 µM)	32 (≈ 80.7 µM)	128 (≈ 323 µM)	4 (≈ 10.1 µM)	8 (≈ 20.2 µM)	4 (≈ 10.1 µM)	8 (≈ 20.2 µM)	MIC [13]: 8 µg/mL (≈ 20.2 µM); MIC [14]: 64 µg/mL (≈ 161 µM); MIC (Gram -; [16]): 3.47 µg/mL (≈ 8.76 µM); MIC (Gram -; [17]): 3.48 µg/mL (≈ 8.77 µM)
CN1CCN(c2c(N)c(N)c3c(=O)c(C(=O)O)cn(C4CC4)c3c2F)CC1 [Compound 28]	3.03	3.03 (≈ 8.08 µM)	2 (≈ 5.33 µM)	0.25 (≈ 0.666 µM)	0.12 (≈ 0.32 µM)	0.12 (≈ 0.32 µM)	0.03 (≈ 0.0799 µM)	0.25 (≈ 0.666 µM)	0.12 (≈ 0.32 µM)	0.03 (≈ 0.0799 µM)	0.03 (≈ 0.0799 µM)	64 (≈ 170 µM)	2 (≈ 5.33 µM)	4 (≈ 10.7 µM)	8 (≈ 21.3 µM)	64 (≈ 170 µM)	0.25 (≈ 0.666 µM)	2 (≈ 5.33 µM)	2 (≈ 5.33 µM)	4 (≈ 10.7 µM)	MIC [13]: 4 µg/mL (≈ 10.7 µM); MIC [14]: 4 µg/mL (≈ 10.7 µM); MIC (Gram -; [16]): 0.592 µg/mL (≈ 1.58 µM); MIC (Gram -; [17]): 0.592 µg/mL (≈ 1.58 µM)
Cc1c(N2CCSCC2)c(N)cc2c(=O)c(C(=O)O)cn(C3CC3)c12 [Compound 35]	0.574	0.574 (≈ 1.6 µM)	1 (≈ 2.78 µM)	0.5 (≈ 1.39 µM)	1 (≈ 2.78 µM)	0.25 (≈ 0.696 µM)	0.06 (≈ 0.167 µM)	0.5 (≈ 1.39 µM)	0.25 (≈ 0.696 µM)	0.06 (≈ 0.167 µM)	0.03 (≈ 0.0835 µM)	64 (≈ 178 µM)	1 (≈ 2.78 µM)	4 (≈ 11.1 µM)	8 (≈ 22.3 µM)	64 (≈ 178 µM)	0.5 (≈ 1.39 µM)	0.25 (≈ 0.696 µM)	0.25 (≈ 0.696 µM)	0.5 (≈ 1.39 µM)	MIC [13]: 1 µg/mL (≈ 2.78 µM); MIC [14]: 2 µg/mL (≈ 5.56 µM); MIC (Gram -; [16]): 0.863 µg/mL (≈ 2.4 µM); MIC (Gram -; [17]): 0.863 µg/mL (≈ 2.4 µM)
